Key:
[1] = test system: A. viscosus; test: Growth inhibition of A. viscosus (optical density over time); format: cell-based; conditions: for optical density of A. viscosus culture, 0 h / optical density of A. viscosus culture, 4 h / optical density of A. viscosus culture, 22 h / optical density of A. viscosus culture, 24 h: 10% concentration in a mouth rinse
Method: The effects of 1-decyl-3-methylimidazolium (DMIM) chloride on bacterial growth were investigated in vitro. DMIM chloride was incorporated into a prototype mouth rinse as illustrated in Table 17. […] The growth inhibition was measured as a change in optical density over time.
The antibacterial effects of various ionic liquids were determined according to the protocol described in Example 12.

[2] = test system: 3-day old biofilm of the artificial mouth consortium of bacteria (A. naeslundii, S. oralis, V. parvula, L. casei, F. nucleatum) and S. mutans; test: In vitro biofilm removal, 3-day old biofilm (protocol of Example 2); format: cell-based; conditions: for Percent Removal of a 3-day Oral Biofilm: […] ionic liquid in base prototype mouth rinse of Table 1, 15 minutes, relative to water control; for Percent Biofilm Removal: BMIM-based ionic liquids
Method: The 3-day old biofilm was grown on a 24 well plate using the artificial mouth consortium of bacteria (A. naeslundii, S. oralis, V. parvula, L. casei, F. nucleatum) and S. mutans. To generate the biofilm, plates were inoculated with saliva overnight to form a pellicle. The consortium of bacteria (1 mL) at an OD of ˜0.2 was added to each well. The bacterial media (Tryptic Soy Broth with 6% sucrose) was changed after 48 hours. The 3-day old biofilm was treated with the prototype formulation (500 μL) for 15 minutes on a plate shaker at 300 rpm. After incubation, the supernatant was discarded. The optical density of each well was measured and the percentage reduction in optical density relative to the control (water) was calculated to determine the effect of the prototype formulation on biofilm removal. […]
Water, untreated biofilm, commercially available mouthwash formulations with CPC (Cetyl pyridinium chloride) and a mouthwash containing five enzymes for combatting biofilm acted as […] for the experiment.

[3] = test system: 3-day old multispecies oral biofilm (artificial mouth consortium combined with Streptococcus mutans); test: In vitro removal of biofilm by prototype mouthrinse formulations (Example 8); format: cell-based; conditions: for Percent Biofilm Removal: 10% glycerin and 5% propylene glycol; for % removal in High humectant mouthwash / % removal in Low humectant mouthwash: 3-day old biofilm
Method: General Procedures Used to Prepare Biofilm
The analyst used a commercially available fluoride dentifrice (Colgate Pro Clinical) and a soft bristled toothbrush (Colgate 360) for routine oral hygiene for 3 days prior to the start of saliva collection. Saliva was collected in the morning, at least two hours after a meal and was centrifuged at 10,000 rpm for 20 minutes. The supernatant was decanted into a Petri dish and placed under UV for 45 minutes.
Bacteria Preparation: Bacteria were taken from the artificial mouth consortium (containing Actinomyces naeslundii, Streptococcus oralis, Veillonella parvula, Lactobacillus casei, and Fusibacterium nucleatum) and combined with Streptococcus mutans which had been grown separately in a ratio of 2:1. Bacteria were grown in tryptic soy broth (TSB) media with 6% sucrose. The resulting bacterial culture was diluted to the required volume, prior to diluting to an optical density of 0.2.
Plate Preparation: 500 μL of UV-treated saliva were added to each well of a 24-well plate. Plates were inoculated overnight in 37° C. After inoculation, excess saliva was discarded and 1 ml of bacteria was added to each well. The bacteria were allowed to attach and develop a biofilm on the bottom of each well over 2 to 4 days, changing the media every 48 hours. During media change, the old media was discarded and 1 ml of fresh media was added.
Treatment: 500 μL of ionic liquid formulation was added to each well and incubated for 4-30 minutes on a plate shaker at 300 rpm. After incubation, the supernatant was discarded. No rinsing was carried out. The optical density of each well was measured at 610 nm, and the percentage reduction in biofilm reduction relative to the control (water) was calculated.
Second Treatment: 500 μL of ionic liquid formulation was added to each well and incubated for 4-30 minutes on a plate shaker at 300 rpm. After discarding the supernatant, the optical density was measured and the percentage reduction in biofilm formation relative to the control (water) was calculated.
An 8 factor design was used. Colgate Plax Re-launch mouth rinse was used a base formulation to build upon. […] Table 11 illustrates the general formulation on the basis of which the prototype formulations were designed.
74 prototype formulations were developed. There are shown below in Table 12 (see next page). Table 12 further illustrates the percentage biofilm reduction after one 15-minute treatment of a 3-day-old biofilm with the formulation, and the viscosity for each formulation. In Table 12, PG is propylene glycol; CPC is cetyl pyridinium chloride; and TRIS is tris(2-hydroxyethyl)methylammonium methylsulfate. All amounts are given in wt %.

[4] = Teeth whitening, in-vitro removal of tooth stains (one hour soak); parameters: species or system human; conditions: 1M in prototype mouth wash of Table 7
Method: The method of determining the effects of imidazolium-based ionic liquids on teeth whitening was carried out as follows:
The initial L*a*b* measurements of dried artificially stained human teeth were captured. The teeth were then soaked in 1 ml of sample solution for one hour, and sample was replenished at 30 minutes. After treatment, teeth were soaked in DI water for approximately 10 minutes. The teeth were left to dry at least overnight, and final L*a*b* measurements were then taken. (L*a*b* refers to stain score in accordance with the Commission International de L'Eclairage Laboratory (CIELAB) color scale. L* (lightness-darkness scale), a* (red-green chroma) and b* (yellow-blue chroma)).
The whitening efficacy was determined as follows:
All the EMIM-based compounds were evaluated at 1M concentration in a prototype mouth wash formulation as illustrated in Table 7.

[5] = other ionic liquids, 3-day old biofilm
[6] = […] in base prototype mouth rinse of Table 1, 3-day old biofilm
[7] = direct comparison EMIM vs BMIM with different anions, 3-day old biofilm
[8] = one ionic liquid at 10, the other at 0
[9] = one ionic liquid at 20, the other at 0
[10] = EMIM-based ionic liquids, […] in base prototype mouth rinse of Table 1, 3-day old biofilm

Compound	optical density of A. viscosus culture, 0 h [1]	optical density of A. viscosus culture, 4 h [1]	optical density of A. viscosus culture, 22 h [1]	optical density of A. viscosus culture, 24 h [1]	Percent Removal of a 3-day Oral Biofilm [2]	other results
1,2,4-trimethylpyrazolium methylsulfate [MMMPz MeSO4]	0.1482	0.1978	0.8519	1.0042	57.8%	Percent Biofilm Removed [2, 5]: 57.9%
C=CCn1cc[n+](C)c1.[Cl-] [AMIM Cl, 1-allyl-3-methylimidazolium (AMIM) chloride]	0.1482	0.2265	0.7091	0.8440	44.8%	biofilm removal, comparison in words ([2]; 3-day old biofilm): effective in removing biofilm; Percent Biofilm Removed [2, 5]: 44.8%
CCCCn1cc[n+](C)c1.[Br-] [BMIM Br, 1-butyl-3-methylimidazolium (BMIM) bromide]	0.1482	0.2373	0.5994	0.8244	48.0%	Percent Biofilm Removal [2, 6]: 48.0%; Percent Biofilm Removed [2, 7]: 48.0%
CCCCn1cc[n+](C)c1.[Cl-] [BMIM Cl, 1-butyl-3-methylimidazolium (BMIM) chloride]					43.8%	Percent Biofilm Removal [2, 6]: 43.8%; Percent Biofilm Removed [2, 7]: 43.8%
CCCCn1cc[n+](C)c1.COS(=O)(=O)[O-] [BMIM MeSO4, BMIM methyl sulfate]					53.9%	Percent Biofilm Removal [2, 6]: 53.9%
CC(=O)[O-].CCCCn1cc[n+](C)c1 [BMIM OAc, BMIM acetate]					55.9%	Percent Biofilm Removal [2, 6]: 55.8%; Percent Biofilm Removed [2, 7]: 55.8%
CCCCCCCCOS(=O)(=O)[O-].CCCCn1cc[n+](C)c1 [BMIM Octyl SO4, BMIM octyl sulfate]					58.6%	Percent Biofilm Removal [2, 6]: 58.6%
C[N+](C)(C)CCO.O=C([O-])c1ccccc1O [Choline salicylate, choline salicylate]	0.1482	0.1523	0.1542	0.1539		growth inhibition of A. viscosus, in words ([1]; formulated at 10% concentration in a mouth rinse): greater growth inhibition of A. viscosus than control compositions containing cetyl pyridinium chloride; Percent Biofilm Removal [3, 8]: 48%; Percent biofilm removal if sorbitol at 20% [3, 8]: 53%; Percent Biofilm Removal [3, 9]: 61%; Percent biofilm removal if sorbitol at 20% [3, 9]: 66%
CCn1cc[n+](C)c1.[Cl-] [EMIM Cl, 1-ethyl-3-methylimidazolium (EMIM) chloride]					44.3%	Percent Biofilm Removed [2, 10]: 44.3%; Percent Biofilm Removed [2, 7]: 44.3%
CCOS(=O)(=O)[O-].CCn1cc[n+](C)c1 [EMIM Ethyl SO4, EMIM ethyl sulfate]	0.1482	0.2499	0.7514	0.7965	48.1%	ΔE [4]: 4.41; ΔL [4]: 3.40; ΔW [4]: −2.99; Percent Biofilm Removed [2, 10]: 48.1%
CC(=O)[O-].CCn1cc[n+](C)c1 [EMIM OAc, EMIM acetate]	0.1482	0.2324	0.7942	0.8223	52.1%	Percent Biofilm Removed [2, 10]: 52.1%; Percent Biofilm Removed [2, 7]: 52.1%
CCn1cc[n+](C)c1.Cc1ccc(S(=O)(=O)[O-])cc1 [EMIM Tosylate, EMIM tosylate]					59.5%	Percent Biofilm Removed [2, 10]: 59.5%
CCOP(=O)([O-])OCC.CCn1cc[n+](C)c1 [EMIM diethyl PO4, EMIM diethyl phosphate]					52.7%	Percent Biofilm Removed [2, 10]: 52.7%
C[N+](C)(C)CCO.[Cl-] [F: Choline chloride, Choline chloride]	0.1482	0.2445	1.0236	1.0674		
COS(=O)(=O)[O-].Cc1n(C)cc[n+]1C [TMIM MeSO4, 1,2,3-trimethylimidazolium (TMIM) methyl sulfate]					51.8%	Percent Biofilm Removed [2, 5]: 51.8%
OC[C@@H](O)[C@@H](O)[C@H](O)[C@@H](O)CO [sorbitol]						increase in biofilm removal ([3]; 20% sorbitol in the formulations): ~5%
choline acetate	0.1482	0.2559	0.9480	1.0385		
tris(2-hydroxyethyl)methylammonium methylsulfate [MTEOA MeSO4]	0.1482	0.2605	0.8415	0.9087	52.8%	Percent Biofilm Removed [2, 5]: 52.8%; % removal in High humectant mouthwash ([3]; Conc Tris-HMAM 1%): 39.0%; % removal in Low humectant mouthwash ([3]; Conc Tris-HMAM 1%): 25.6%; % removal in High humectant mouthwash ([3]; Conc Tris-HMAM 2.5%): 50.5%; % removal in Low humectant mouthwash ([3]; Conc Tris-HMAM 2.5%): 28.2%; % removal in High humectant mouthwash ([3]; Conc Tris-HMAM 5%): 53.9%; % removal in Low humectant mouthwash ([3]; Conc Tris-HMAM 5%): 30.9%; % removal in High humectant mouthwash ([3]; Conc Tris-HMAM 10%): 57.7%; % removal in Low humectant mouthwash ([3]; Conc Tris-HMAM 10%): 46.8%; % removal in High humectant mouthwash ([3]; Conc Tris-HMAM 20%): 71.1%; % removal in Low humectant mouthwash ([3]; Conc Tris-HMAM 20%): 57.3%; % removal in High humectant mouthwash ([3]; Conc Tris-HMAM 40%): 73.2%; % removal in Low humectant mouthwash ([3]; Conc Tris-HMAM 40%): 67.1%; Percent Biofilm Removal [3, 8]: 47%; Percent biofilm removal if sorbitol at 20% [3, 8]: 52%; Percent Biofilm Removal [3, 9]: 60%; Percent biofilm removal if sorbitol at 20% [3, 9]: 65%

— patent US20150335548A1, “Oral Care Composition” (COLGATE-PALMOLIVE COMPANY, priority 2012, published 2015)
